Assay results reported in the Kinase Knowledgebase extract (Sharma et al. 2016).

Target: CDK2 (human) (UniProt P24941)
Assay: Enzyme Assay

Ki, < 1 µM:
Cc1cccc2c(Nc3cc(-c4ccco4)[nH]n3)nc(-c3ccc4[nH][nH]c(=O)c4c3OC(F)(F)F)nc12, Cc1cc(Nc2cc(N3CCCC3)nc(SCc3ccc4c(=O)[nH][nH]c4c3)n2)n[nH]1, O=c1[nH][nH]c2cc(Nc3nc(Nc4cc(C5CCC5)[nH]n4)c4ccccc4n3)ccc12, O=c1[nH][nH]c2cc(NC3COCC(Nc4nccnn4)C3)ccc12 (stereo not given), Cc1cnc(NC2COCC(C(C)(C)c3ccc4c(=O)[nH][nH]c4c3)C2)s1 (stereo not given), O=c1[nH][nH]c2ccc(-c3nc(Nc4n[nH]c5ccccc45)cc(-c4cnc[nH]4)n3)c(C(F)(F)F)c12, O=c1[nH][nH]c2cc(Nc3cccc(Nc4cc(C5CC5)[nH]n4)n3)ccc12, O=c1[nH][nH]c2cc(COc3cc(Nc4n[nH]c5ccccc45)ccn3)ccc12, O=c1[nH][nH]c2ccc(Nc3nc(Nc4cc(C5CC5)[nH]n4)c4ccccc4n3)cc12, COC(C)(C)c1cc(Nc2cc(C3CC3)[nH]n2)nc(Sc2ccc3c(=O)[nH][nH]c3c2)n1, Cc1cc(-c2cc3c(=O)[nH][nH]c3cc2Cl)nc(Nc2n[nH]c3ccccc23)c1C, CCCCc1cc(Nc2nncc(-c3ccc4[nH][nH]c(=O)c4c3)n2)n[nH]1, O=c1[nH][nH]c2cc(Oc3nc(Nc4cc(C5CC5)[nH]n4)cc(-c4ccccc4)n3)ccc12, O=c1[nH][nH]c2cc(NCC3CCCC3Nc3cc(C4CC4)[nH]n3)ccc12 (stereo not given), O=c1[nH][nH]c2cc(SCCCNc3cc(C4CC4)[nH]n3)ccc12, O=c1[nH][nH]c2cc(Cl)c(-c3cc4c(c(Nc5n[nH]c6ccccc56)n3)CCCC4)cc12, Cn1cnc(NC(=O)CC(=O)Cc2ccc3c(=O)[nH][nH]c3c2)c1, O=C1CCCN(c2cc(-c3cc4c(=O)[nH][nH]c4cc3Cl)nc(Nc3n[nH]c4ccc(F)cc34)n2)C1, Cc1cc(Nc2cccc(Sc3ccc4c(=O)[nH][nH]c4c3)n2)n[nH]1, O=c1[nH][nH]c2cc(SCC3CCCC3Nc3nccnn3)ccc12 (stereo not given), CN1CCC(OCc2cc(Nc3cc(C4CC4)[nH]n3)nc(Sc3ccc4c(=O)[nH][nH]c4c3)n2)CC1, Cn1cnc(NC(=O)CCCc2ccc3c(=O)[nH][nH]c3c2)c1, CC(=O)Nc1cccc(-c2cc(Nc3cc(C)[nH]n3)nc(Sc3ccc4c(=O)[nH][nH]c4c3)n2)c1, O=c1[nH][nH]c2cc(CSc3cc(Nc4n[nH]c5ccccc45)c4ccccc4n3)ccc12, O=c1[nH][nH]c2ccc(C3CCCC(Nc4nccnn4)C3)cc12 (stereo not given), Cc1cc(Nc2nc(COc3ccc4c(=O)[nH][nH]c4c3)nc3c2CN(Cc2ccccc2)CC3)n[nH]1, O=c1[nH][nH]c2ccc(C3CCC(Nc4nccnn4)C3)cc12 (stereo not given), CSc1nc(Nc2ccc3c(=O)[nH][nH]c3c2)cc(Nc2cc(C3CC3)[nH]n2)n1, O=c1[nH][nH]c2cc(NOCCNc3nccnn3)ccc12, O=c1[nH][nH]c2cc(Nc3nc(Nc4cc(C5CC5)[nH]n4)c4ccc(Cl)cc4n3)ccc12, O=c1[nH][nH]c2cc(NCCONc3cc(C4CC4)[nH]n3)ccc12, O=c1[nH][nH]c2ccc(C3CCC(Nc4cc(C5CC5)[nH]n4)C3)cc12 (stereo not given), O=c1[nH][nH]c2cc(Nc3ncc(Nc4ccccc4)c(Nc4cc(C5CC5)[nH]n4)n3)ccc12, Cc1cnc(Sc2ccc3c(=O)[nH][nH]c3c2)nc1Nc1cc(C2CC2)[nH]n1, COc1cc(-c2cc(Nc3cc(C)[nH]n3)nc(Nc3ccc4c(=O)[nH][nH]c4c3)n2)cc(OC)c1OC, O=c1[nH][nH]c2cc(Nc3nc(Nc4cc(C5CC5)[nH]n4)cc(-c4ccccc4)n3)ccc12, O=c1[nH][nH]c2cc(C(F)(F)F)c(-c3nc4c(c(Nc5n[nH]c6ccc(F)cc56)n3)OCCC4)cc12, O=c1[nH][nH]c2ccc(-c3nc(Nc4n[nH]cc4-c4ccccc4)c4ccccc4n3)c(C(F)(F)F)c12, O=C(CCOc1ccc2c(=O)[nH][nH]c2c1)Nc1nccnn1, NCCc1cc(Nc2n[nH]c3ccccc23)nc(-c2ccc3[nH][nH]c(=O)c3c2C(F)(F)F)n1, Cc1cc(Nc2cc(-c3ccccc3)nc(Sc3ccc4c(=O)[nH][nH]c4c3)n2)n[nH]1, Cc1cnc(NCCC(Cc2ccccc2)Cc2ccc3c(=O)[nH][nH]c3c2)s1 (stereo not given), O=c1[nH][nH]c2ccc(-c3nc4c(c(Nc5n[nH]c6c(F)cccc56)n3)CCCCCC4)c(C(F)(F)F)c12, O=c1[nH][nH]c2cc([C@@H]3C[C@H]3c3nc(Nc4n[nH]c5ccccc45)c4ccccc4n3)ccc12, O=C(NC1CCCCC1)c1cc(Nc2nc(-c3ccc4[nH][nH]c(=O)c4c3)nc3ccccc23)n[nH]1, CN(C)CCCOc1cc(Nc2cc(C3CC3)[nH]n2)nc(Sc2ccc3c(=O)[nH][nH]c3c2)n1, Cn1cnc(NC2CCCC2CCc2ccc3c(=O)[nH][nH]c3c2)c1 (stereo not given), O=c1[nH][nH]c2cc(CCCC(Nc3ccccn3)c3ccccc3)ccc12 (stereo not given), Cc1cc(Nc2nc(Nc3ccc4c(=O)[nH][nH]c4c3)nc3c2CCNC3)n[nH]1, O=c1[nH][nH]c2cc(C3CC3C3COCC(Nc4nccnn4)C3)ccc12 (stereo not given), O=c1[nH][nH]c2cc(Nc3nc(Nc4cc(C5CC5)[nH]n4)c4cc(Cl)ccc4n3)ccc12, O=c1[nH][nH]c2ccc(-c3nc(Nc4n[nH]c5cc(=O)n(-c6ccccc6)nc45)c4ccccc4n3)c(C(F)(F)F)c12, Cc1cc(Nc2cc(Nc3ccc4c(=O)[nH][nH]c4c3)nc3ccccc23)n[nH]1, O=c1[nH][nH]c2ccc(-c3cc4ccccc4c(Nc4n[nH]c5c(F)cc(F)cc45)n3)c(C(F)(F)F)c12, Cc1cccc2nc(Nc3ccc4c(=O)[nH][nH]c4c3)nc(Nc3cc(C4CC4)[nH]n3)c12, Cc1cc(Nc2nc(COc3ccc4c(=O)[nH][nH]c4c3)nc3c2CNCC3)n[nH]1, O=c1[nH][nH]c2ccc(-c3nc4c(c(Nc5n[nH]c6ccccc56)n3)CCCC4)c(C(F)(F)F)c12, O=c1[nH][nH]c2cc(Oc3cccc(Nc4cc(C5CC5)[nH]n4)n3)ccc12, O=c1[nH][nH]c2ccc(-c3cc(Nc4n[nH]c5c(F)cc(F)cc45)c4ccccc4n3)c(C(F)(F)F)c12, Cc1cc(Nc2cc(C3CC3)[nH]n2)nc(Oc2ccc3c(=O)[nH][nH]c3c2)n1, Cc1nc(Nc2nc(-c3ccc4[nH][nH]c(=O)c4c3C(N)=O)nc3ccccc23)n[nH]1, O=c1[nH][nH]c2cc(Sc3nc(Nc4n[nH]c5ccccc45)c4ccccc4n3)ccc12, Cc1cc(Nc2nc(-c3ccc4[nH][nH]c(=O)c4c3)cc3ccccc23)n[nH]1, CCc1cc(Nc2cc(C)[nH]n2)nc(C(C)(C)c2ccc3c(=O)[nH][nH]c3c2)n1, Cc1cc(Nc2nc(Nc3ccc4c(=O)[nH][nH]c4c3)nc3c2CCN(Cc2ccccc2)C3)n[nH]1, O=C(CC(=O)Oc1ccc2c(=O)[nH][nH]c2c1)Nc1ccccn1, Cn1cnc(Nc2cccc(Nc3ccc4c(=O)[nH][nH]c4c3)c2)c1, Cc1cc(Nc2cccc(Oc3ccc4c(=O)[nH][nH]c4c3)n2)n[nH]1, O=C(CCNc1cc(C2CC2)[nH]n1)Cc1ccc2c(=O)[nH][nH]c2c1, Cc1cc(Nc2cc(N3CCCCC3)nc(SCc3ccc4[nH][nH]c(=O)c4c3)n2)n[nH]1, O=C(CC(=O)Nc1ccccn1)Nc1ccc2c(=O)[nH][nH]c2c1, O=c1[nH][nH]c2cc(NC3CCC(Nc4cc(C5CC5)[nH]n4)C3)ccc12 (stereo not given), O=c1[nH][nH]c2cc(C(F)(F)F)c(-c3cc(N4CCCCC4)cc(Nc4n[nH]c5ccccc45)n3)cc12, Cc1cnc(NOCCSc2ccc3c(=O)[nH][nH]c3c2)s1, O=c1[nH][nH]c2cc(Oc3cc4ccccc4c(Nc4n[nH]c5ccccc45)n3)ccc12, CSc1n[nH]c(Nc2nc(Nc3ccc4c(=O)[nH][nH]c4c3)ccc2[N+](=O)[O-])n1, C#Cc1c(-c2nc(Nc3n[nH]c(C)n3)c3ccccc3n2)ccc2[nH][nH]c(=O)c12, Cn1cnc(NC2CCCC(Sc3ccc4c(=O)[nH][nH]c4c3)C2)c1 (stereo not given), O=c1[nH][nH]c2cc(Sc3nc(Nc4cc(C5CC5)[nH]n4)cc(N4CCOCC4)n3)ccc12, O=C(CCCc1ccc2c(=O)[nH][nH]c2c1)Nc1nccnn1, Cc1nc(-c2ccc3[nH][nH]c(=O)c3c2C(F)(F)F)nc(Nc2n[nH]c(C(C)C)n2)c1C, O=c1[nH][nH]c2cc(NC3CCCC(Nc4ccccn4)C3)ccc12 (stereo not given), Cc1cc(Nc2nc(Sc3ccc4c(=O)[nH][nH]c4c3)cc3ccccc23)n[nH]1, O=c1[nH][nH]c2cc(CCCONc3cc(C4CC4)[nH]n3)ccc12, O=C(CCNc1nccnn1)Cc1ccc2c(=O)[nH][nH]c2c1
